Data from PubChem BioAssay AID1963982 (Molecular Pharmacology Branch, DTP, NCI, 2024).

Test system: 313798-341-R-J2-PDC spheroids, viability
Assay: Anticancer human tumor 313798-341-R-J2-PDC patient-derived cervical squamous cell carcinoma cell line growth inhibition [PI3K]
Conditions: spheroids with HUVEC and MSC; for IC50: curve of first compound; for viability, T/C: stronger effect = lower value; active means viability on the fitted dose curve at most 10% of control; inactive means the rest
Method in brief: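 Spheroid viability read-out. Co-cultures contained the tumor line plus HUVEC and human MSCs. Each agent was paired with a PI3K inhibitor (inavolisib, alpelisib, duvelisib, copanlisib) across half-log dilutions starting at clinical Cmax, or at 10 microM when Cmax was unknown.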

[1] = second compound 0.0316 µM, first compound 0.0316 µM
[2] = second compound 0.0316 µM, first compound 0.1 µM
[3] = second compound 0.0316 µM, first compound 0.316 µM
[4] = second compound 0.0316 µM, first compound 1 µM
[5] = second compound 0.0316 µM, first compound 3.16 µM
[6] = second compound 0.0316 µM, first compound 10 µM
[7] = second compound 0.1 µM, first compound 0.0316 µM
[8] = second compound 0.1 µM, first compound 0.1 µM
[9] = second compound 0.1 µM, first compound 0.316 µM
[10] = second compound 0.1 µM, first compound 1 µM
[11] = second compound 0.1 µM, first compound 3.16 µM
[12] = second compound 0.1 µM, first compound 10 µM
[13] = second compound 0.316 µM, first compound 0.0316 µM
[14] = second compound 0.316 µM, first compound 0.1 µM
[15] = second compound 0.316 µM, first compound 0.316 µM
[16] = second compound 0.316 µM, first compound 1 µM
[17] = second compound 0.316 µM, first compound 3.16 µM
[18] = second compound 0.316 µM, first compound 10 µM
[19] = second compound 1 µM, first compound 0.0316 µM
[20] = second compound 1 µM, first compound 0.1 µM
[21] = second compound 1 µM, first compound 0.316 µM
[22] = second compound 1 µM, first compound 1 µM
[23] = second compound 1 µM, first compound 3.16 µM
[24] = second compound 1 µM, first compound 10 µM
[25] = second compound 3.16 µM, first compound 0.0316 µM
[26] = second compound 3.16 µM, first compound 0.1 µM
[27] = second compound 3.16 µM, first compound 0.316 µM
[28] = second compound 3.16 µM, first compound 1 µM
[29] = second compound 3.16 µM, first compound 3.16 µM
[30] = second compound 3.16 µM, first compound 10 µM
[31] = second compound 10 µM, first compound 0.0316 µM
[32] = second compound 10 µM, first compound 0.1 µM
[33] = second compound 10 µM, first compound 0.316 µM
[34] = second compound 10 µM, first compound 1 µM
[35] = second compound 10 µM, first compound 3.16 µM
[36] = second compound 10 µM, first compound 10 µM
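Further: spheroids exposed to compounds for seven days.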
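Wherever viability, T/C is given: 100% = DMSO vehicle control viability.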

Cn1ncc(Cl)c1-c1cc(C(=O)NC(CN)Cc2cccc(F)c2)sc1Cl (stereo unspecified) + Cc1nc(NC(=O)N2CCCC2C(N)=O)sc1-c1ccnc(C(C)(C)C(F)(F)F)c1
0.572 µM: IC50 (second compound 1 µM)
0.868 µM: IC50 (second compound 0.316 µM)
0.831 µM: IC50 (second compound 0.1 µM)
< 0.0316 µM: IC50 (second compound 10 µM)
0.238 µM: IC50 (second compound 3.16 µM)
0.927 µM: IC50 (second compound 0.0316 µM)
inactive: viability, T/C [1] 109% | viability, T/C [2] 93.2% | viability, T/C [3] 70.3% | viability, T/C [4] 49.7% | viability, T/C [5] 34.5% | viability, T/C [6] 33.3% | viability, T/C [7] 108% | viability, T/C [8] 89% | viability, T/C [9] 72.1% | viability, T/C [10] 44.5% | viability, T/C [11] 33.6% | viability, T/C [12] 34.8% | viability, T/C [13] 102% | viability, T/C [14] 99.7% | viability, T/C [15] 72.2% | viability, T/C [16] 48.5% | viability, T/C [17] 34.5% | viability, T/C [18] 33.1% | viability, T/C [19] 76.5% | viability, T/C [20] 73.9% | viability, T/C [21] 56.5% | viability, T/C [22] 43.9% | viability, T/C [23] 34.3% | viability, T/C [24] 33.7% | viability, T/C [25] 59.5% | viability, T/C [26] 57.5% | viability, T/C [27] 46% | viability, T/C [28] 40.7% | viability, T/C [29] 30.4% | viability, T/C [30] 28.4% | viability, T/C [31] 38.2% | viability, T/C [32] 32.6% | viability, T/C [33] 31.9% | viability, T/C [34] 26.4% | viability, T/C [35] 27.7% | viability, T/C [36] 17.4%

CNC(=O)c1ccc(N2C(=S)N(c3ccc(C#N)c(C(F)(F)F)c3)C(=O)C2(C)C)cc1F + CC(Nc1ncnc2nc[nH]c12)c1cc2cccc(Cl)c2c(=O)n1-c1ccccc1
> 10 µM: IC50 (second compound 0.0316 µM) | IC50 (second compound 0.1 µM) | IC50 (second compound 0.316 µM) | IC50 (second compound 1 µM) | IC50 (second compound 3.16 µM) | IC50 (second compound 10 µM)
inactive: viability, T/C [1] 104% | viability, T/C [2] 110% | viability, T/C [3] 100% | viability, T/C [4] 92.4% | viability, T/C [5] 121% | viability, T/C [6] 98.8% | viability, T/C [7] 102% | viability, T/C [8] 101% | viability, T/C [9] 112% | viability, T/C [10] 99.4% | viability, T/C [11] 106% | viability, T/C [12] 101% | viability, T/C [13] 94.8% | viability, T/C [14] 98.3% | viability, T/C [15] 92.6% | viability, T/C [16] 98.8% | viability, T/C [17] 98.3% | viability, T/C [18] 96.5% | viability, T/C [19] 95% | viability, T/C [20] 96.5% | viability, T/C [21] 97.8% | viability, T/C [22] 109% | viability, T/C [23] 100% | viability, T/C [24] 93.2% | viability, T/C [25] 111% | viability, T/C [26] 101% | viability, T/C [27] 92.9% | viability, T/C [28] 93.9% | viability, T/C [29] 97.1% | viability, T/C [30] 84.8% | viability, T/C [31] 82.8% | viability, T/C [32] 86.1% | viability, T/C [33] 85.5% | viability, T/C [34] 85.6% | viability, T/C [35] 88.4% | viability, T/C [36] 73.2%

CC(C)NCC(C(=O)N1CCN(c2ncnc3c2C(C)CC3O)CC1)c1ccc(Cl)cc1 (stereo unspecified) + CC(Nc1ncnc2nc[nH]c12)c1cc2cccc(Cl)c2c(=O)n1-c1ccccc1
1.88 µM: IC50 (second compound 3.16 µM)
1.61 µM: IC50 (second compound 0.0316 µM)
1.72 µM: IC50 (second compound 0.316 µM)
1.8 µM: IC50 (second compound 1 µM)
1.41 µM: IC50 (second compound 10 µM)
inactive: viability, T/C [1] 114% | viability, T/C [2] 91.3% | viability, T/C [3] 81.7% | viability, T/C [4] 54% | viability, T/C [5] 40.1% | viability, T/C [6] 29.6% | viability, T/C [7] 102% | viability, T/C [8] 103% | viability, T/C [9] 90.2% | viability, T/C [10] 65.2% | viability, T/C [11] 36.9% | viability, T/C [12] 30.5% | viability, T/C [13] 94% | viability, T/C [14] 100% | viability, T/C [15] 84.2% | viability, T/C [16] 62% | viability, T/C [17] 36.9% | viability, T/C [18] 30% | viability, T/C [19] 97.3% | viability, T/C [20] 100% | viability, T/C [21] 89.9% | viability, T/C [22] 57.5% | viability, T/C [23] 44.2% | viability, T/C [24] 26.9% | viability, T/C [25] 96.7% | viability, T/C [26] 87.4% | viability, T/C [27] 89.8% | viability, T/C [28] 63.2% | viability, T/C [29] 39.1% | viability, T/C [30] 26.7% | viability, T/C [31] 91.3% | viability, T/C [32] 86.3% | viability, T/C [33] 75.9% | viability, T/C [34] 53.7% | viability, T/C [35] 39% | viability, T/C [36] 27.1%
1.87 µM: IC50 (second compound 0.1 µM)
